Patent publication US20240358702A1, “CYCLIC UREA KRAS INHIBITORS” (INCYTE CORPORATION, priority 2023, published 2024)

Experiments:
KRAS G12D = KRAS G12D (Homo sapiens, UniProt P01116, G12D); test: GDP-GTP exchange assay (bodipy-GDP/GppNHp, SOS1), KRAS G12D; assay type: biochemical; conditions: KRAS_G12D exchange assay IC50, 4 h pre-incubation, value for the most potent isomer quoted
Protocol: (§1) The inhibitor potency of the exemplified compounds was determined in a fluorescence based guanine nucleotide exchange assay, which measures the exchange of bodipy-GDP (fluorescently labeled GDP) for GppNHp (Non-hydrolyzable GTP analog) to generate the active state of KRAS in the presence of SOS1 (guanine nucleotide exchange factor). Inhibitors were serially diluted in DMSO and a volume of 0.1 μL was transferred to the wells of a black low volume 384-well plate. 5 μL/well volume of bodipy-loaded KRAS G12D diluted to […] in assay buffer (25 mM Hepes pH 7.5, 50 mM NaCl, 10 mM mgCl2 and 0.01% Brij-35) was added to the plate and pre-incubated with inhibitor for 4 h at ambient temperature. Appropriate controls (enzyme with no inhibitor or with a G12D inhibitor) were included on the plate. The exchange was initiated by the addition of a 5 μL/well volume containing 1 mM GppNHp and 300 nM SOS1 in assay buffer. The 10 μL/well reaction concentration of the bodipy-loaded KRAS G12D, GppNHp, and SOS1 were 2.5 nM, 500 uM, and 150 nM, respectively. The reaction plates were incubated at ambient temperature for 2 h, a time estimated for complete GDP-GTP exchange in the absence of inhibitor. For the KRAS G12V mutant, similar guanine nucleotide exchange assays were used with 2.5 nM as final concentration for the bodipy loaded KRAS proteins and 3 h incubation after adding GppNHp-SOS1 mixture. A cyclic peptide described to selectively bind G12D mutant (Sakamoto et al., BBRC 484.3 (2017), 605-611) or internal compounds with confirmed binding were used as positive controls in the assay plates. Fluorescence intensities were measured on a PheraStar plate reader instrument (BMG Labtech) with excitation at 485 nm and emission at 520 nm.
(§2) Either GraphPad prism or Genedata Screener SmartFit was used to analyze the data. The IC50 values were derived by fitting the data to a four parameter logistic equation producing a sigmoidal dose-response curve with a variable Hill coefficient.
(§3) The symbol “t” indicates IC50≤100 nM, “††” indicates IC50>100 nM but ≤1 μM; and “†††” indicates IC50 is >1 μM but ≤5 μM, “††††” indicates IC50 is >5 μM but ≤10 μM. “NA” indicates IC50 not available.

KRAS G12V = KRAS G12V (Homo sapiens, UniProt P01116, G12V); test: GDP-GTP exchange assay (bodipy-GDP/GppNHp, SOS1), KRAS G12V; assay type: biochemical; conditions: KRAS_G12V exchange assay IC50, value for the most potent isomer quoted; for IC50: read-out: G12V_exchange
Protocol: as §1, §2, §3

Sequence of KRAS G12V (P01116 1-188 isoform P01116-2 G12V): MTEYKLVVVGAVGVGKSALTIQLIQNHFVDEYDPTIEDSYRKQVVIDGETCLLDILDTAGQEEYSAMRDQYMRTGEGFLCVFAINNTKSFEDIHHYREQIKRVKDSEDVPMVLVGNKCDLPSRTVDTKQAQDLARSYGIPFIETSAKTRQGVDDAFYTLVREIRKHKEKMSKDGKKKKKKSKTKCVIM
Sequence of KRAS G12D (P01116 1-188 isoform P01116-2 G12D): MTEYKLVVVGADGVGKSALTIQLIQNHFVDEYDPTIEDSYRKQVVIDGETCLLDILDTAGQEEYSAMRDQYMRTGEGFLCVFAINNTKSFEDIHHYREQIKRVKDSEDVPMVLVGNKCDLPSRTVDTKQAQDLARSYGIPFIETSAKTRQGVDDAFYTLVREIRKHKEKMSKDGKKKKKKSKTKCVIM

Row | SMILES | G12D_exchange (KRAS G12D) | G12V_exchange (KRAS G12V) | IC50 (KRAS G12D; read-out: G12D_exchange) [nM] | IC50 (KRAS G12V) [nM]
1 | Cc1nc2c(F)c(-c3cccc(Cl)c3Cl)c(CCC#N)cc2c2c1cc([C@@H](C)N1CCCN(c3ccncn3)C1=O)n2[C@H]1[C@H]2CN[C@@H]1C2 (single isomer, unassigned) [Example 11] | † | – | – | 100 to 1000
2 | Cc1nc2c(F)c(-c3cccc(Cl)c3Cl)c(CCC#N)cc2c2c1cc([C@@H](C)N1CCCN(c3ccnc4sccc34)C1=O)n2[C@H]1[C@H]2CN[C@@H]1C2 (single isomer, unassigned) [Example 8] | † | † | – | –
3 | Cc1nc2c(F)c(-c3cccc(Cl)c3Cl)c(CCC#N)cc2c2c1cc([C@@H](C)N1CCCN(c3ccccn3)C1=O)n2[C@H]1[C@H]2CN[C@@H]1C2 [Example 19, 3-(1-((1R,4R,5S)-2-azabicyclo[2.1.1]hexan-5-yl)-7-(2,3-dichlorophenyl)-6-fluoro-4-methyl-2-((R)-1-(2-oxo-3-(pyridin-2-yl)tetrahydropyrimidin-1(2H)-yl)ethyl)-1H-pyrrolo[3,2-c]quinolin-8-yl)propanenitrile] | † | † | – | –
4 | COc1cc(N2CCCN([C@H](C)c3cc4c(C)nc5c(F)c(-c6cccc(Cl)c6Cl)c(CCC#N)cc5c4n3[C@H]3[C@H]4CN[C@@H]3C4)C2=O)ccn1 [Example 22, 3-(1-((1R,4R,5S)-2-azabicyclo[2.1.1]hexan-5-yl)-7-(2,3-dichlorophenyl)-6-fluoro-2-((R)-1-(3-(2-methoxypyridin-4-yl)-2-oxotetrahydropyrimidin-1(2H)-yl)ethyl)-4-methyl-1H-pyrrolo[3,2-c]quinolin-8-yl)propanenitrile] | † | † | – | –
5 | Cc1nc2c(F)c(-c3cccc(Cl)c3Cl)c(CCC#N)cc2c2c1cc([C@@H](C)N1CCCN(c3ccnc(C(F)F)c3)C1=O)n2[C@H]1[C@H]2CN[C@@H]1C2 (single isomer, unassigned) [Example 12] | † | – | – | 100 to 1000
6 | COc1ncccc1N1CCCN([C@H](C)c2cc3c(C)nc4c(F)c(-c5cccc(Cl)c5Cl)c(CCC#N)cc4c3n2[C@H]2[C@H]3CN[C@@H]2C3)C1=O [Example 20, 3-(1-((1R,4R,5S)-2-azabicyclo[2.1.1]hexan-5-yl)-7-(2,3-dichlorophenyl)-6-fluoro-2-((R)-1-(3-(2-methoxypyridin-3-yl)-2-oxotetrahydropyrimidin-1(2H)-yl)ethyl)-4-methyl-1H-pyrrolo[3,2-c]quinolin-8-yl)propanenitrile] | † | – | – | 100 to 1000
7 | Cc1nc2c(F)c(-c3cccc(Cl)c3Cl)c(CCC#N)cc2c2c1cc([C@@H](C)N1CCCN(c3ccccc3)C1=O)n2[C@H]1[C@H]2CN[C@@H]1C2 [Example 16, 3-(1-((1R,4R,5S)-2-azabicyclo[2.1.1]hexan-5-yl)-7-(2,3-dichlorophenyl)-6-fluoro-4-methyl-2-((R)-1-(2-oxo-3-phenyltetrahydropyrimidin-1(2H)-yl)ethyl)-1H-pyrrolo[3,2-c]quinolin-8-yl)propanenitrile] | † | † | – | –
8 | Cc1nc2c(F)c(-c3cccc(Cl)c3Cl)c(CCC#N)cc2c2c1cc([C@@H](C)N1CCCN(c3ccncc3)C1=O)n2[C@H]1[C@H]2CN[C@@H]1C2 [Example 17, 3-(1-((1R,4R,5S)-2-azabicyclo[2.1.1]hexan-5-yl)-7-(2,3-dichlorophenyl)-6-fluoro-4-methyl-2-((R)-1-(2-oxo-3-(pyridin-4-yl)tetrahydropyrimidin-1(2H)-yl)ethyl)-1H-pyrrolo[3,2-c]quinolin-8-yl)propanenitrile] | † | – | – | 100 to 1000

Continued, values first:

Row | G12D_exchange (KRAS G12D) | G12V_exchange (KRAS G12V) | IC50 (KRAS G12D; read-out: G12D_exchange) [nM] | IC50 (KRAS G12V) [nM] | SMILES
9 | † | † | – | – | CC(O)c1nc2c(F)c(-c3cccc(Cl)c3Cl)c(CCC#N)cc2c2c1cc([C@@H](C)N1CCCN(c3ccncc3)C1=O)n2[C@H]1[C@H]2CN[C@@H]1C2 (stereo partly drawn) [Example 39, 3-(1-((1R,4R,5S)-2-azabicyclo[2.1.1]hexan-5-yl)-7-(2,3-dichlorophenyl)-6-fluoro-4-(1-hydroxyethyl)-2-((R)-1-(2-oxo-3-(pyridin-4-yl)tetrahydropyrimidin-1(2H)-yl)ethyl)-1H-pyrrolo[3,2-c]quinolin-8-yl)propanenitrile]
10 | – | – | 100 to 1000 | 1000 to 5000 | Cc1nc2c(F)c(-c3cccc(Cl)c3Cl)c(CCC#N)cc2c2c1cc([C@@H](C)N1CCCN(c3ccn(C)c(=O)c3)C1=O)n2[C@H]1[C@H]2CN[C@@H]1C2 [Example 36, 3-(1-((1R,4R,5S)-2-azabicyclo[2.1.1]hexan-5-yl)-7-(2,3-dichlorophenyl)-6-fluoro-4-methyl-2-((R)-1-(3-(1-methyl-2-oxo-1,2-dihydropyridin-4-yl)-2-oxotetrahydropyrimidin-1(2H)-yl)ethyl)-1H-pyrrolo[3,2-c]quinolin-8-yl)propanenitrile]
11 | † | – | – | 100 to 1000 | Cc1nc2c(F)c(-c3cccc(Cl)c3Cl)c(CCC#N)cc2c2c1cc([C@@H](C)N1CCCN(c3ccncn3)C1=O)n2[C@H]1[C@H]2CN[C@@H]1C2 [Example 33, 3-(1-((1R,4R,5S)-2-azabicyclo[2.1.1]hexan-5-yl)-7-(2,3-dichlorophenyl)-6-fluoro-4-methyl-2-((R)-1-(2-oxo-3-(pyrimidin-4-yl)tetrahydropyrimidin-1(2H)-yl)ethyl)-1H-pyrrolo[3,2-c]quinolin-8-yl)propanenitrile]
12 | † | – | – | 100 to 1000 | Cc1nc2c(F)c(-c3cccc(Cl)c3Cl)c(CCC#N)cc2c2c1cc([C@@H](C)N1CCCN(c3ccnc(N(C)C)c3)C1=O)n2[C@H]1[C@H]2CN[C@@H]1C2 [Example 30, 3-(1-((1R,4R,5S)-2-azabicyclo[2.1.1]hexan-5-yl)-7-(2,3-dichlorophenyl)-2-((R)-1-(3-(2-(dimethylamino)pyridin-4-yl)-2-oxotetrahydropyrimidin-1(2H)-yl)ethyl)-6-fluoro-4-methyl-1H-pyrrolo[3,2-c]quinolin-8-yl)propanenitrile]
13 | † | † | – | – | Cc1nc2c(F)c(-c3cccc(Cl)c3Cl)c(CCC#N)cc2c2c1cc([C@@H](C)N1CCCN(c3ccnc(F)c3)C1=O)n2[C@H]1[C@H]2CN[C@@H]1C2 [Example 27, 3-(1-((1R,4R,5S)-2-azabicyclo[2.1.1]hexan-5-yl)-7-(2,3-dichlorophenyl)-6-fluoro-2-((R)-1-(3-(2-fluoropyridin-4-yl)-2-oxotetrahydropyrimidin-1(2H)-yl)ethyl)-4-methyl-1H-pyrrolo[3,2-c]quinolin-8-yl)propanenitrile]
14 | † | – | – | 100 to 1000 | Cc1nc2c(F)c(-c3cccc(Cl)c3Cl)c(CCC#N)cc2c2c1cc([C@@H](C)N1CCCN(c3ccnc(C(F)F)c3)C1=O)n2[C@H]1[C@H]2CN[C@@H]1C2 [Example 31, 3-(1-((1R,4R,5S)-2-azabicyclo[2.1.1]hexan-5-yl)-7-(2,3-dichlorophenyl)-2-((R)-1-(3-(2-(difluoromethyl)pyridin-4-yl)-2-oxotetrahydropyrimidin-1(2H)-yl)ethyl)-6-fluoro-4-methyl-1H-pyrrolo[3,2-c]quinolin-8-yl)propanenitrile]
15 | † | † | – | – | Cc1nc2c(F)c(-c3cccc(Cl)c3Cl)c(CCC#N)cc2c2c1cc([C@@H](C)N1CCCN(c3cccc(C4(O)COC4)c3)C1=O)n2[C@H]1[C@H]2CN[C@@H]1C2 [Example 24, 3-(1-((1R,4R,5S)-2-azabicyclo[2.1.1]hexan-5-yl)-7-(2,3-dichlorophenyl)-6-fluoro-2-((R)-1-(3-(3-(3-hydroxyoxetan-3-yl)phenyl)-2-oxotetrahydropyrimidin-1(2H)-yl)ethyl)-4-methyl-1H-pyrrolo[3,2-c]quinolin-8-yl)propanenitrile]
16 | † | † | – | – | Cc1nc2c(F)c(-c3cccc(Cl)c3Cl)c(CCC#N)cc2c2c1cc([C@@H](C)N1CCCN(c3ccc(F)cn3)C1=O)n2[C@H]1[C@H]2CN[C@@H]1C2 [Example 40, 3-(1-((1R,4R,5S)-2-azabicyclo[2.1.1]hexan-5-yl)-7-(2,3-dichlorophenyl)-6-fluoro-2-((R)-1-(3-(5-fluoropyridin-2-yl)-2-oxotetrahydropyrimidin-1(2H)-yl)ethyl)-4-methyl-1H-pyrrolo[3,2-c]quinolin-8-yl)propanenitrile]
